Legend:
EGFR (L858R, T790M) = molecular target: T1, EGFR (L858R, T790M) (Homo sapiens, UniProt P00533, L858R/T790M); test: In vitro kinase binding assay (phage/DNA-tagged kinase, affinity beads, qPCR), mutant EGFR
T1 construct: The EGFR constructs span amino acids R669 to V1011 of the EGFR protein; T7 phage display fusion (kinase-tagged T7 phage) or DNA tag for qPCR; made in house; host or cells: E. coli (BL21-derived) infected with T7 phage for most assays; remaining kinases in HEK-293
Method: (§1) For most assays, kinase-tagged T7 phage strains were prepared in an E. coli host derived from the BL21 strain. For the EGFR assays, wild-type EGFR, or mutant EGFR (T790M, L858R) were utilized. The EGFR constructs span amino acids R669 to V1011 of the EGFR protein. E. coli were grown to log-phase and infected with T7 phage and incubated with shaking at 32° C. until lysis. The lysates were centrifuged and filtered to remove cell debris. The remaining kinases were produced in HEK-293 cells and subsequently tagged with DNA for qPCR detection. Streptavidin-coated magnetic beads were treated with biotinylated small molecule ligands for 30 minutes at room temperature to generate affinity resins for kinase assays. The liganded beads were blocked with excess biotin and washed with blocking buffer (SeaBlock (Pierce), 1% BSA, 0.05% Tween 20, 1 mM DTT) to remove unbound ligand and to reduce non-specific binding. Binding reactions were assembled by combining kinases, liganded affinity beads, and test compounds in 1× binding buffer (20% SeaBlock, 0.17×PBS, 0.05% Tween 20, 6 mM DTT). Test compounds were prepared as 111× stocks in 100% DMSO. Kds were determined using an 11-point 3-fold compound dilution series with three DMSO control points. All compounds for Kd measurements are distributed by acoustic transfer (non-contact dispensing) in 100% DMSO. The compounds were then diluted directly into the assays such that the final concentration of DMSO was 0.9%. All reactions performed in polypropylene 384-well plate. Each was a final volume of 0.02 ml. The assay plates were incubated at room temperature with shaking for 1 hour and the affinity beads were washed with wash buffer (lx PBS, 0.05% Tween 20). The beads were then re-suspended in elution buffer (lx PBS, 0.05% Tween 20, 0.5 μM nonbiotinylated affinity ligand) and incubated at room temperature with shaking for 30 minutes. The kinase concentration in the eluates was measured by qPCR.

EGFR (WT) = molecular target: T2, EGFR (WT) (Homo sapiens, UniProt P00533); test: In vitro kinase binding assay (phage/DNA-tagged kinase, affinity beads, qPCR), wild-type EGFR
T2 construct: The EGFR constructs span amino acids R669 to V1011 of the EGFR protein; T7 phage display fusion (kinase-tagged T7 phage) or DNA tag for qPCR; made in house; host or cells: E. coli (BL21-derived) infected with T7 phage for most assays; remaining kinases in HEK-293
T2 sequence (P00533 669-1011): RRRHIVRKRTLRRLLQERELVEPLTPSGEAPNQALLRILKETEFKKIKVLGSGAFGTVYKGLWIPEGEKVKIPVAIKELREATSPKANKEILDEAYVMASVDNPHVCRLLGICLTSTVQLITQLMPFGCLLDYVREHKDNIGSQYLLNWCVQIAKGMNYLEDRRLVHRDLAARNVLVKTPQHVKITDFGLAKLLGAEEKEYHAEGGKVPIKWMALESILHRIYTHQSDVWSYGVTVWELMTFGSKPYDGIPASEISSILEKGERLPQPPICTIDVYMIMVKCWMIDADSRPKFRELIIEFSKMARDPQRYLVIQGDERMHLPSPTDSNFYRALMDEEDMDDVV
Method: as §1

T1 sequence (P00533 669-1011 T790M/L858R): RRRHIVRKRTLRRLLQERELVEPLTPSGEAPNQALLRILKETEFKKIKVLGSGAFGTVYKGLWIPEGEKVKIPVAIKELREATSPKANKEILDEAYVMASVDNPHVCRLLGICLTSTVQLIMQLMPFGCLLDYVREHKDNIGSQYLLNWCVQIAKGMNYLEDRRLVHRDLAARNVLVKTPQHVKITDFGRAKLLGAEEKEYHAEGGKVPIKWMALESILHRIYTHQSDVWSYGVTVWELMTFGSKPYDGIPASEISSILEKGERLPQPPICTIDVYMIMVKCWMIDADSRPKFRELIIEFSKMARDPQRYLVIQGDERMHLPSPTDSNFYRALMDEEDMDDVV

In the case of `C=CC(=O)N[C@@H]1CN(c2nc(Nc3cn(CCCNC(=O)CN4CCN5CCN6CCN(CC4)CC(=O)[O][Lu]([O]C(=O)C5)[O]C(=O)C6)nc3OC)c3ncn(C)c3n2)C[C@H]1F` [Compound 001-Lu, N-[(3R,4R)-4-fluoro-1-[6-[[3-methoxy-1-[3-[[2-(3,16,19-trioxo-2,17,18-trioxa-5,8,11,14-tetraza-1λ3-lutetatricyclo[9.6.3.25,14]docosan-8-yl)acetyl]amino]propyl]pyrazol-4-yl]amino]-9-methyl-purin-2-yl]pyrrolidin-3-yl]prop-2-enamide], the Kd (EGFR (L858R, T790M)) is reported as < 1 nM, the “Binding Affinity ratio of WT/DM” value (EGFR (L858R, T790M); ratio of Kd EGFR (WT) to Kd EGFR (L858R, T790M)) is reported as “A (4 < A ≤ 25)” and the Kd (EGFR (WT)) is reported as 2 to 100 nM.

Source: patent publication US20240342318A1, “CONJUGATES COMPRISING COVALENT BINDERS FOR TARGETING INTRACELLULAR PROTEINS” (RayzeBio, Inc., priority 2021, published 2024)
